According to ChEMBL document CHEMBL5620359, “Discovery of 2,5-disubstituted furan derivatives featuring a benzamide motif for overcoming P-glycoprotein mediated multidrug resistance in MCF-7/ADR cell” (Eur J Med Chem, 2023):
Active and inactive are the calls of the source. The rule behind the calls is not given here.

How the values were obtained:
[1] = test system: NCI/ADR-RES; test: Cytotoxicity against human MCF7ADR cells assessed as cell survival rate at 5 uM incubated for 48 hrs by CCK8 assay relative to control; type: functional
[2] = test system: NCI/ADR-RES; test: Reversal activity against doxorubicin-mediated resistance in human MCF7ADR cells assessed as reversal fold by measuring ratio of doxorubicin IC50 to doxorubicin IC50 in presence of test compound at 5 uM incubated for 48 hrs by CCK8 assay; type: functional
[3] = test system: NCI/ADR-RES; test: Reversal activity against doxorubicin-mediated resistance in human MCF7ADR cells assessed as reversal fold by measuring ratio of doxorubicin IC50 to doxorubicin IC50 in presence of test compound at 1 uM incubated for 48 hrs by CCK8 assay; type: functional
[4] = test system: NCI/ADR-RES; test: Reversal activity against doxorubicin-mediated resistance in 3D spheroid model of human MCF7ADR cells assessed as reduction in tumor spheroid volume at 5 uM incubated for 9 days by inverted microscopy; type: functional, cell-based; conditions: time 9.0 day
[5] = biological target: T1, ATP-dependent translocase ABCB1 (Homo sapiens, UniProt P08183); test: Inhibition of P-gp in human MCF7ADR cells assessed as increase in Rh123 accumulation at 0.1 to 10 uM incubated for 4 hrs by flow cytometry; type: cell-based; conditions: dose 0.1-10 µM
[6] = test system: NCI/ADR-RES; test: Downregulation of P-gp expression in human MCF7ADR cells at 0.1 to 10 uM incubated for 48 hrs by Western blot analysis; type: functional, cell-based; conditions: dose 0.1-10 µM
[7] = biological target: T1, ATP-dependent translocase ABCB1; test: Inhibition of P-gp in human MCF7ADR cells assessed as increase in Rh123 accumulation at 0.1 to 10 uM incubated for 4 hrs by fluorescence microscopy; type: cell-based; conditions: dose 0.1-10 µM
[8] = test system: NCI/ADR-RES; test: Antitumor activity against human MCF7ADR cells xenografted in nude BALB/c mouse assessed as tumor weight reduction at 10 mg/kg, ip for 14 days administered every 2 days; type: functional, organism-based; conditions: time 14.0 day
[9] = Toxicity in nude BALB/c mouse xenografted with human MCF7ADR cells assessed as body weight loss at 10 mg/kg, ip for 14 days administered every 2 days in presence of doxorubicin; type: organism-based; conditions: in vivo, 336 h, time 14 day
[10] = Toxicity in nude BALB/c mouse xenografted with human MCF7ADR cells assessed as body weight loss at 10 mg/kg, ip for 14 days administered every 2 days; type: organism-based; conditions: in vivo, 336 h, time 14 day
[11] = Toxicity in nude BALB/c mouse xenografted with human MCF7ADR cells assessed as morphological change in heart at 10 mg/kg, ip for 14 days administered every 2 days by H and E staining based analysis; type: organism-based; conditions: in vivo, 336 h, time 14 day
[12] = test system: NCI/ADR-RES; test: Reversal activity against daunorubicin-mediated resistance in human MCF7ADR cells assessed as reversal fold by measuring ratio of daunorubicin IC50 to daunorubicin IC50 in presence of test compound at 5 uM incubated for 48 hrs by CCK8 assay; type: functional
[13] = Toxicity in nude BALB/c mouse xenografted with human MCF7ADR cells assessed as morphological change in kidney at 10 mg/kg, ip for 14 days administered every 2 days by H and E staining based analysis; type: organism-based; conditions: in vivo, 336 h, time 14 day
[14] = test system: NCI/ADR-RES; test: Reversal activity against vincristine-mediated resistance in human MCF7ADR cells assessed as reversal fold by measuring ratio of vincristine IC50 to vincristine IC50 in presence of test compound at 5 uM incubated for 48 hrs by CCK8 assay; type: functional
[15] = test system: NCI/ADR-RES; test: Reversal activity against doxorubicin-mediated resistance in human MCF7ADR cells assessed as reversal fold by measuring ratio of doxorubicin IC50 to doxorubicin IC50 in presence of test compound at 0.5 uM incubated for 48 hrs by CCK8 assay; type: functional
[16] = Toxicity in nude BALB/c mouse xenografted with human MCF7ADR cells assessed as morphological change in spleen at 10 mg/kg, ip for 14 days administered every 2 days by H and E staining based analysis; type: organism-based; conditions: in vivo, 336 h, time 14 day
[17] = Toxicity in nude BALB/c mouse xenografted with human MCF7ADR cells assessed as morphological change in lung at 10 mg/kg, ip for 14 days administered every 2 days by H and E staining based analysis; type: organism-based; conditions: in vivo, 336 h, time 14 day
[18] = test system: NCI/ADR-RES; test: Reversal activity against doxorubicin-mediated resistance in human MCF7ADR cells xenografted in nude BALB/c mouse at 10 mg/kg, ip for 14 days administered every 2 days; type: functional, organism-based; conditions: time 14.0 day
[19] = test system: NCI/ADR-RES; test: Reversal activity against paclitaxel-mediated resistance in human MCF7ADR cells assessed as reversal fold by measuring ratio of paclitaxel IC50 to paclitaxel IC50 in presence of test compound at 5 uM incubated for 48 hrs by CCK8 assay; type: functional
[20] = test system: NCI/ADR-RES; test: Antitumor activity against human MCF7ADR cells xenografted in nude BALB/c mouse assessed as tumor volume reduction at 10 mg/kg, ip for 14 days administered every 2 days; type: functional, organism-based; conditions: time 14.0 day
[21] = test system: NCI/ADR-RES; test: Antitumor activity against human MCF7ADR cells xenografted in nude BALB/c mouse assessed as tumor size reduction at 10 mg/kg, ip for 14 days administered every 2 days; type: functional, organism-based; conditions: time 14.0 day
[22] = test system: MCF7; test: Cytotoxicity against human MCF7 cells assessed as cell survival rate at 5 uM incubated for 48 hrs by CCK8 assay relative to control; type: functional
[23] = Toxicity in nude BALB/c mouse xenografted with human MCF7ADR cells assessed as morphological change in liver at 10 mg/kg, ip for 14 days administered every 2 days by H and E staining based analysis; type: organism-based; conditions: in vivo, 336 h, time 14 day
[24] = test system: NCI/ADR-RES; test: Reversal activity against doxorubicin-mediated resistance in human MCF7ADR cells assessed as reversal fold by measuring ratio of doxorubicin IC50 to doxorubicin IC50 in presence of test compound at 0.1 uM incubated for 48 hrs by CCK8 assay; type: functional
[25] = test system: MCF7; test: Antitumor activity against human MCF7 cells incubated for 48 hrs by CCK8 assay; type: functional, cell-based; conditions: MCF7, 48 h
[26] = Toxicity in nude BALB/c mouse xenografted with human MCF7ADR cells assessed as reduction in spleen volume at 3 mg/kg, ip for 14 days administered every 2 days by H and E staining based analysis; type: organism-based; conditions: in vivo, 336 h, time 14 day
[27] = Toxicity in nude BALB/c mouse xenografted with human MCF7ADR cells assessed as pathological change in spleen at 3 mg/kg, ip for 14 days administered every 2 days by H and E staining based analysis; type: organism-based; conditions: in vivo, 336 h, time 14 day
[28] = Toxicity in nude BALB/c mouse xenografted with human MCF7ADR cells assessed as increase in nuclear density in liver at 3 mg/kg, ip for 14 days administered every 2 days by H and E staining based analysis; type: organism-based; conditions: in vivo, 336 h, time 14 day
[29] = Toxicity in nude BALB/c mouse xenografted with human MCF7ADR cells assessed as reduction in liver volume at 3 mg/kg, ip for 14 days administered every 2 days by H and E staining based analysis; type: organism-based; conditions: in vivo, 336 h, time 14 day
[30] = Toxicity in nude BALB/c mouse xenografted with human MCF7ADR cells assessed as body weight loss at 3 mg/kg, ip for 14 days administered every 2 days; type: organism-based; conditions: in vivo, 336 h, time 14 day
[31] = Toxicity in nude BALB/c mouse xenografted with human MCF7ADR cells assessed as hyperplasia in spleen at 3 mg/kg, ip for 14 days administered every 2 days by H and E staining based analysis; type: organism-based; conditions: in vivo, 336 h, time 14 day
[32] = Toxicity in nude BALB/c mouse xenografted with human MCF7ADR cells assessed as increase in nuclear density in kidney at 3 mg/kg, ip for 14 days administered every 2 days by H and E staining based analysis; type: organism-based; conditions: in vivo, 336 h, time 14 day
[33] = test system: NCI/ADR-RES; test: Cytotoxicity against human MCF7ADR cells assessed as cell survival rate at 1 uM incubated for 48 hrs by CCK8 assay relative to control; type: functional

T1 sequence (P08183 whole entry): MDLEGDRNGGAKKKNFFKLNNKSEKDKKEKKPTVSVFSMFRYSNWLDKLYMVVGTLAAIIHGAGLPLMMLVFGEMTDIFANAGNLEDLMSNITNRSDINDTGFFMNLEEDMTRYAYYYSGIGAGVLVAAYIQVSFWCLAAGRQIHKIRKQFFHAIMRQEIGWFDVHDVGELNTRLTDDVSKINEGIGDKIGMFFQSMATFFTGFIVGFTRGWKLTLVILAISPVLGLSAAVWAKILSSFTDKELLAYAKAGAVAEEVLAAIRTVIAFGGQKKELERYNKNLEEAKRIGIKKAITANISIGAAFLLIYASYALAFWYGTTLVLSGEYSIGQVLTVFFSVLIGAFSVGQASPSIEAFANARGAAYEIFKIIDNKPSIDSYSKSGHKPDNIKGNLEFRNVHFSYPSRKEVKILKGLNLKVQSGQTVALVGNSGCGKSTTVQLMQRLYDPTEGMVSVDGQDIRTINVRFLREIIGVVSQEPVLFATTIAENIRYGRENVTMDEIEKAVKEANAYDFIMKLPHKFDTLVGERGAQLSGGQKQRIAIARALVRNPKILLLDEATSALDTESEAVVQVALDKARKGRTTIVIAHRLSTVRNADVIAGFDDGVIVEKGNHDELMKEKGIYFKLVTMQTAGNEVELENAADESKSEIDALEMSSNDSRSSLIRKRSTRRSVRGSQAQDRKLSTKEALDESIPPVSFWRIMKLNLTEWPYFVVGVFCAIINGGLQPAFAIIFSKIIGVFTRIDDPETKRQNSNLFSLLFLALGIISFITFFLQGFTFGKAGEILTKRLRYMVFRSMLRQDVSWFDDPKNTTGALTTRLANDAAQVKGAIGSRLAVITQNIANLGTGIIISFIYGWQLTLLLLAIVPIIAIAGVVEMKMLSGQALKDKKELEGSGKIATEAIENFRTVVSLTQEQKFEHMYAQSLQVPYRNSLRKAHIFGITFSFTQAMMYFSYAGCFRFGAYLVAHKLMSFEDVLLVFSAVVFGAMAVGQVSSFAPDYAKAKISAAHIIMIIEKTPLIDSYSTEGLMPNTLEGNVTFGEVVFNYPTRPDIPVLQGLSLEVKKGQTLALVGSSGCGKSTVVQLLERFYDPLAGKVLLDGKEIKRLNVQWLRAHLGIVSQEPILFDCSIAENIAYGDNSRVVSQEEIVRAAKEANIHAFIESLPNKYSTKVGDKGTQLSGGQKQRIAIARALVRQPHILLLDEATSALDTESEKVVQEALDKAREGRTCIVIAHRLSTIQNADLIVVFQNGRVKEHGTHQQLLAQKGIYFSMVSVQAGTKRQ

## COc1cc2c(cc1OC)CN(C(=O)c1ccc(-c3ccc(NC(=O)c4ccccc4)cc3)o1)CC2
[1]
  Activity: 73.5%
[2]
  fold change (FC): 221.1
[3]
  fold change (FC): 5.3

## COc1ccc(C(=O)Nc2ccc(-c3ccc(C(=O)N4CCc5cc(OC)c(OC)cc5C4)o3)cc2)cc1
[1]
  Activity: 80.1%
[4]
  Activity: Active
[5]
  inhibition (INH): Dose-Dependent Effect
[6]
  Activity: inactive
[7]
  inhibition (INH): Dose-Dependent Effect
[8]
  Activity: inactive
[9]
  Activity: Toxic
[2]
  fold change (FC): 565
[10]
  Activity: Non-Toxic
[11]
  Activity: Non-Toxic
[12]
  fold change (FC): 143.4
[13]
  Activity: Non-Toxic
[14]
  fold change (FC): 18.9
[15]
  fold change (FC): 8.8
[16]
  Activity: Non-Toxic
[17]
  Activity: Non-Toxic
[18]
  Activity: Active
[19]
  fold change (FC): 158.6
[20]
  Activity: inactive
[3]
  fold change (FC): 110.5
[21]
  Activity: inactive
[22]
  Activity: 80.4%
[23]
  Activity: Non-Toxic
[24]
  fold change (FC): 3.3

## COc1cccc2c1C(=O)c1c(O)c3c(c(O)c1C2=O)C[C@@](O)(C(C)=O)C[C@@H]3O[C@H]1C[C@H](N)[C@H](O)[C@H](C)O1 [DAUNORUBICIN]
[25]
  IC50: 980 nM

## CC(=O)O[C@H]1C(=O)[C@@]2(C)[C@H]([C@H](OC(=O)c3ccccc3)[C@]3(O)C[C@H](OC(=O)[C@H](O)[C@@H](NC(=O)c4ccccc4)c4ccccc4)C(C)=C1C3(C)C)[C@]1(OC(C)=O)CO[C@@H]1C[C@@H]2O [PACLITAXEL]
[25]
  IC50: 550 nM

## COc1cccc2c1C(=O)c1c(O)c3c(c(O)c1C2=O)C[C@@](O)(C(=O)CO)C[C@@H]3O[C@H]1C[C@H](N)[C@H](O)[C@H](C)O1 [DOXORUBICIN]
[26]
  Activity: Toxic
[27]
  Activity: Toxic
[28]
  Activity: Toxic
[29]
  Activity: Toxic
[30]
  Activity: Toxic
[31]
  Activity: Toxic
[32]
  Activity: Toxic

## COc1cc2c(cc1OC)CN(C(=O)c1ccc(-c3ccc(NC(=O)c4ccco4)cc3)o1)CC2
[1]
  Activity: 11.3%
[33]
  Activity: 80.6%

## COc1cc2c(cc1OC)CN(C(=O)c1ccc(-c3ccc(NC(=O)c4cccs4)cc3)o1)CC2
[1]
  Activity: 26%
[33]
  Activity: 92.3%

## COc1cc2c(cc1OC)CN(C(=O)c1ccc(-c3cccc(NC(=O)c4ccco4)c3)o1)CC2
[1]
  Activity: 75.9%
[2]
  fold change (FC): 30.4
[3]
  fold change (FC): 5.2

## CC[C@]1(O)C[C@H]2CN(CCc3c([nH]c4ccccc34)[C@@](C(=O)OC)(c3cc4c(cc3OC)N(C=O)[C@H]3[C@@](O)(C(=O)OC)[C@H](OC(C)=O)[C@]5(CC)C=CCN6CC[C@]43[C@@H]65)C2)C1 [VINCRISTINE]
[25]
  IC50: 900 nM

## COc1cc(OC)cc(C(=O)Nc2ccccc2-c2ccc(C(=O)N3CCc4cc(OC)c(OC)cc4C3)o2)c1
[1]
  Activity: 97.3%
[2]
  fold change (FC): 13.1
[22]
  Activity: 70.5%

## COc1cccc(C(=O)Nc2ccc(-c3ccc(C(=O)N4CCc5cc(OC)c(OC)cc5C4)o3)cc2)c1
[1]
  Activity: 77.1%
[2]
  fold change (FC): 97.8
[22]
  Activity: 81.2%

## COc1cc2c(cc1OC)CN(C(=O)c1ccc(-c3ccc(NC(=O)c4cccc([N+](=O)[O-])c4)cc3)o1)CC2
[1]
  Activity: 71%
[2]
  fold change (FC): 53.5
[22]
  Activity: 79.2%

## COc1cc2c(cc1OC)CN(C(=O)c1ccc(-c3ccc(NC(=O)c4cccnc4)cc3)o1)CC2
[1]
  Activity: 14.7%
[33]
  Activity: 72.4%
[3]
  fold change (FC): 2.2

## C/C=C/C[C@@H](C)[C@@H](O)[C@H]1C(=O)N[C@@H](CC)C(=O)N(C)CC(=O)N(C)[C@@H](CC(C)C)C(=O)N[C@@H](C(C)C)C(=O)N(C)[C@@H](CC(C)C)C(=O)N[C@@H](C)C(=O)N[C@H](C)C(=O)N(C)[C@@H](CC(C)C)C(=O)N(C)[C@@H](CC(C)C)C(=O)N(C)[C@@H](C(C)C)C(=O)N1C [CYCLOSPORINE]
[1]
  Activity: 89.4%
[2]
  fold change (FC): 59.1
[22]
  Activity: 87.5%
